In PMC6631887, “In vitro and in vivo characterization of anti-malarial acylphenoxazine derivatives prepared from basic blue 3” (Malaria Journal, 2019):
“And” between values parts separate entries of the source, which are not always exact repeats. Identical values can stand only once. Like-named read-outs stand apart in the source and are kept apart here.

Columns and labels:
[1] = test system: Plasmodium falciparum field isolate MRA-1239 (ART-sensitive); test: In vitro anti-malarial efficacy (growth inhibition), XN-30 analyzer, MRA-1239 isolate; type: cell-based; conditions: read-out: IC50 MRA-1239
[2] = test system: Plasmodium falciparum field isolate MRA-1240 (ART-resistant); test: In vitro anti-malarial efficacy (growth inhibition), XN-30 analyzer, MRA-1240 isolate; type: cell-based; conditions: read-out: IC50 MRA-1240
[3] = test system: Plasmodium falciparum 3D7 (CQ- and PYR-sensitive); test: In vitro anti-malarial efficacy (growth inhibition), XN-30 analyzer, 3D7 strain; type: cell-based; conditions: read-out: IC50 3D7
[4] = test system: Plasmodium falciparum W2 (CQ- and PYR-resistant); test: In vitro anti-malarial efficacy (growth inhibition), XN-30 analyzer, W2 strain; type: cell-based; conditions: read-out: IC50 W2
[5] = Cytotoxic assay (Cell Counting Kit-8), HEK293T; type: cell-based; conditions: human, HEK293T cells; 48 h culture, CCK-8; mean ± SEM, three experiments
Method: (§1) HepG2 (JCRB1054) and HEK293T cell lines were obtained from the Japanese Collection of Research Bioresources (JCRB, Osaka, Japan) and Prof. Yoshiharu Matsuura (Osaka University, Osaka, Japan), respectively. The cells were cultured in Dulbecco’s modified Eagle’s medium (DMEM (1.0 g/L glucose) with L-glutamine and sodium pyruvate; Nacalai Tesque, Kyoto, Japan) supplemented with 10% (v/v) fetal bovine serum (FBS; Gibco-BRL, Grand Island, NY, USA) in a humidified incubator with 5% CO2 at 37 °C. For the cytotoxic assay, the cells (5 × 10^3/well) were seeded in a 96-well plate. […] Cell viability was measured using a Cell Counting Kit-8 (Dojindo) according to the manufacturer’s instructions. Briefly, 10 µL CCK-8 reagent was added to each well containing culture medium and incubated for 2 h under standard culture conditions. The absorbance of the sample was measured at 450 nm using a PowerWave HT microplate spectrophotometer (BioTek Instruments, Winooski, VT, USA). The cell viability was expressed as a percentage of the absorbance of the untreated control cells after subtracting the appropriate background intensity. The CC50 (mean ± SEM) was calculated as described in IC50. The SI, which is the ratio between the cytotoxicity and anti-malarial activity, was calculated according to the following equation. SI=mean CC50/mean IC50.

[6] = Cytotoxic assay (Cell Counting Kit-8), HepG2; type: cell-based; conditions: human, HepG2 cells; 48 h culture, CCK-8; mean ± SEM, three experiments
Method: as §1

Plasmodium berghei NK65 = test: In vivo anti-malarial activity, rodent malaria model, oral administration; design: species or system Plasmodium berghei (in ICR mice); conditions: for MSD (mean survival day) / % suppression on day 4: mice; for MSD (mean survival day): observed to day 30; for % suppression on day 4: repeated for 3 consecutive days, parasitaemia vs control
Method: The in vivo anti-malarial efficacy of ITT-001 to 006 was evaluated using the rodent malaria parasite P. berghei NK65 as described by Fidock et al., with some modifications. The parasite was maintained by syringe passage every week in female ICR mice (4–8-week-old; body weight, 25–27 g, Sankyo Lab Service, Tokyo, Japan). On day 0, a 200 µL aliquot of saline containing 2 × 10^7 iRBCs prepared from the pre-infected mice was injected intravenously into the mice. After 4 h, basic blue 3 and ITT-001 to 006 dissolved or suspended in 5% (w/v) methyl cellulose 400 solution (FUJIFILM Wako Pure Chemical, Osaka, Japan) were orally administered (100 mg/kg body weight of basic blue 3 and ITT-001 to 006 and 50 mg/kg body weight of ITT-004) to the mice (four and five groups for basic blue 3 and ITT-001 to 006, respectively). The control group (five mice/group) was treated with approximately 100 µL of the vehicle. This treatment was repeated for 3 consecutive days. On day 4, peripheral blood samples were obtained from the tail veins of the mice and thin blood smears stained with Diff-Quik stain kit (Sysmex) were observed under a Leica DM6000B microscope (Leica Microsystems, Wetzlar, Germany). Parasitaemia was determined by counting over 10 fields of view. The suppression rate (%) was calculated as the difference in parasitaemia between the test and control groups. The mean survival day (MSD) was calculated from the number of the surviving mice on day 30. The surviving mice were cured on day 30. Kaplan–Meier curves were generated to graphically display the efficacy using GraphPad Prism version 5.0.

[7] = Measurement of fluorescence spectrum (self-fluorescence); type: physicochemical; conditions: 10 µM in saline containing 1% DMSO, excitation 592 nm, emission 630-730 nm
Method: Fluorescence spectrum of basic blue 3 and ITT-001 to 006 (10 µM) was obtained in saline containing 1% DMSO at room temperature. The compounds were excited at 592 nm (bandpass width, 5 nm) and their emission spectra, 630 nm to 730 nm, were measured with a RF-5300PC Spectro fluorophotometer (Shimadzu).

[8] = test system: Plasmodium falciparum 3D7 (ring-form-synchronized); test: Characterization of anti-malarial activity in vitro, 24 h treatment, XN-30 analyzer and light microscopy; type: cell-based; conditions: 3D7, 24 h treatment; for concentration at which parasites were arrested or killed with the ring-form: XN-30 analyzer (Fig. 2i); for concentration at which trophozoites appeared: XN-30 analyzer (Fig. 2ii)
Method: The ring-form-synchronized parasite (3D7 strain) was treated with the indicated concentrations of basic blue 3 and ITT-001 to 006 for 24 h for flow cytometric and morphological analyses using an automated haematology analyzer, XN-30, and light microscope, respectively.
For the flow cytometric analysis, the XN30 analyzer was equipped with a prototype algorithm for cultured P. falciparum [prototype; software version: 01-03, (build 16)] and specific reagents were used ([…] DCL, SULFOLYSER, Lysercell M, and Fluorocell M) (Sysmex, Kobe, Japan). Approximately 100 µL of the culture suspension diluted with 100 µL phosphate-buffered saline was added into a BD Microtainer MAP Microtube for Automated Process K2 EDTA 1.0 mg tube (Becton–Dickinson and Co., Franklin Lakes, NJ, USA) and loaded onto the XN-30 analyzer with an auto-sampler as described in the instrument’s manual (Sysmex). […] Horizontal and vertical axes represent the intensities of side fluorescent light (SFL, which corresponds to DNA content) and forward scattered light (FSC, indicating iRBC size), respectively. Colours indicate the following based on the default setting: red, ring-form; orange, trophozoite; purple, schizont; and blue, polychromatic RBC. Once parasites replicate DNA, dots are plotted to the right side on the M scattergram according to the increase in DNA content. The parasitaemias (total, MI-RBC%; ring-form, RNG-RBC%; trophozoite, TRPZ-RBC%; and schizont, SCHZ-RBC%) were automatically reported.
A standard thin blood smear was fixed with 100% methanol for 10 min and stained with 10% Giemsa working solution, pH 7.2 (Merck KGaA, Darmstadt, Germany) for 13 min.

[9] = 48 h treatment, ring-form-synchronized, XN-30 analyzer, mean ± SEM, three experiments
[10] = Plasmodium falciparum, 3D7, 48 h, 48 h treatment, ring-form-synchronized, XN-30 analyzer, mean ± SEM, three experiments
[11] = Plasmodium falciparum, W2, 48 h, 48 h treatment, ring-form-synchronized, XN-30 analyzer, mean ± SEM, three experiments
[12] = oral 100 mg/kg, surviving mice considered cured

SMILES	IC50 [1, 9]	IC50 [2, 9]	IC50 [3, 10]	IC50 [4, 11]	CC50 at 48 h [5]	CC50 at 48 h [6]	MSD (mean survival day) (Plasmodium berghei NK65; oral 100 mg/kg)	% suppression on day 4 (Plasmodium berghei NK65; oral 100 mg/kg)	# of survived mice on day 30 (Plasmodium berghei NK65; [12])	maximum fluorescence intensity [7]	further results
C[C@@H]1CC[C@H]2[C@@H](C)C(=O)O[C@@H]3O[C@@]4(C)CC[C@@H]1[C@]32OO4 [ART, artemisinin, reference compound]	5.5 ± 0.018 nM	13.2 ± 1.4 nM	–	–	–	–	–	–	–	–	–
CCN(CC)CCCC(C)Nc1ccnc2cc(Cl)ccc12 (stereo not shown) [CQ, chloroquine, reference compound]	–	–	–	–	–	–	–	–	–	–	IC50 ([3]; Plasmodium falciparum, 3D7, 48 h): 8.6 ± 0.21 nM; IC50 ([4]; Plasmodium falciparum, W2, 48 h): 225 ± 23.2 nM; IC50 ([1]; 48 h): 38.6 ± 5.2 nM; IC50 ([2]; 48 h): 58 ± 2.6 nM
CCN(CC)c1ccc2c(c1)Oc1cc(N(CC)CC)ccc1N2C(C)=O [ITT-001, 1-(3,7-Bis(diethylamino)-10H-phenoxazin-10-yl)ethanone]	34.6 ± 9.1 nM	39 ± 11.2 nM	11.2 ± 1.3 nM	11.1 ± 1.8 nM	320 ± 42 nM	4000 ± 850 nM	20.4 days	> 99%	3/5	–	–
CCN(CC)c1ccc2c(c1)Oc1cc(N(CC)CC)ccc1N2C(=O)C(C)(C)C [ITT-002, 1-(3,7-Bis(diethylamino)-10H-phenoxazin-10-yl)-2,2-dimethylpropan-1-one]	20.7 ± 1.6 nM	24.4 ± 3.7 nM	10.7 ± 1.5 nM	10.4 ± 2.8 nM	200 ± 21 nM	> 50000 nM	19.2 days	> 99%	2/5	–	–
CCN(CC)c1ccc2c(c1)Oc1cc(N(CC)CC)ccc1N2C(=O)C1CC1 [ITT-003]	24.9 ± 3.1 nM	31.3 ± 9.8 nM	9.8 ± 1 nM	9.6 ± 2.1 nM	9200 ± 3800 nM	> 50000 nM	21.0 days	> 99%	2/5	–	–
CCN(CC)c1ccc2c(c1)Oc1cc(N(CC)CC)ccc1N2C(=O)c1ccccc1 [ITT-004, (3,7-Bis(diethylamino)-10H-phenoxazin-10-yl)(phenyl)methanone]	26.4 ± 2.9 nM	30.5 ± 2 nM	11.3 ± 2.4 nM	12.3 ± 2.7 nM	10500 ± 3400 nM	> 50000 nM	29.4 days	> 99%	–	less than 3 a.u.	MSD (mean survival day) (Plasmodium berghei NK65; oral 50 mg/kg): 11.8 days; % suppression on day 4 (Plasmodium berghei NK65; oral 50 mg/kg): > 99%; # of survived mice on day 30 (Plasmodium berghei NK65; oral 50 mg/kg): 0/5; # of survived mice on day 30 (Plasmodium berghei NK65; oral 100 mg/kg, surviving mice considered cured, 100 mg/kg): four of five and 4 out of 5 and 4/5
CCN(CC)CC(=O)N1c2ccc(N(CC)CC)cc2Oc2cc(N(CC)CC)ccc21.Cl [ITT-005, 1-(3,7-Bis(diethylamino)-10H-phenoxazin-10-yl)-2-(diethylamino)ethanone hydrochloride]	130 ± 9.3 nM	184 ± 30.1 nM	–	–	730 ± 93 nM	4600 ± 260 nM	14.0 days	> 99%	1/5	–	concentration at which parasites were arrested or killed with the ring-form [8]: 5000 nM; concentration at which trophozoites appeared [8]: 150 nM
CCN(CC)c1ccc2c(c1)Oc1cc(N(CC)CC)ccc1N2C(=O)c1ccc(F)cc1 [ITT-006, (3,7-Bis(diethylamino)-10H-phenoxazin-10-yl)(4-fluorophenyl)methanone]	27.5 ± 3.4 nM	29.4 ± 5.8 nM	10.6 ± 1.6 nM	16 ± 4.5 nM	13600 ± 3000 nM	> 50000 nM	13.0 days	91.5%	0/5	less than 3 a.u.	–
CCN(CC)c1ccc2nc3ccc(=[N+](CC)CC)cc-3oc2c1 [basic blue 3]	5.2 ± 1.1 nM	5.9 ± 0.68 nM	~4 nM	~4 nM	21 ± 4.2 nM	1000 ± 64 nM	20.3 days	> 99%	1/4	775 a.u.	IC50 [3, 9]: 3.2 ± 0.19 nM; IC50 [4, 9]: 4.8 ± 0.53 nM; concentration at which parasites were arrested or killed with the ring-form [8]: 15 nM; concentration at which trophozoites appeared [8]: 0.5 nM
